Measurements reported in patent US20220220041A1, “USE OF UREA AS AN ANTIMICROBIAL ADDITIVE IN AN AQUEOUS SUSPENSION” (Omya International AG, priority 2019, published 2022).

Tests used:
Format in all cases: cell-based
Settings in all cases: 30° C.
[1] = tested on: non-sterile calcium carbonate slurry (H60), environmental bacteria; test: Example 2 preservation efficacy: H60 slurry with 61 wt.-% urea solution, non-sterile H60 inoculum, TVC
Description: (§1) All quoted bacterial counts (Total viable counts (TVC) values), unless otherwise indicated, are given in cfu/ml and determined after at least 2 days following plate-out and incubation at 30° C. and in accordance with the counting method described in “Bestimmung von aerobe mesophilen Keimen”, Schweizerisches Lebensmittelbuch, chapter 56, section 7.01, edition of 1985, revised version of 1988.
(§2) Unless otherwise stated, per tryptic soy agar plate (TSA, prepared using BD 236950) 0.1 ml of a solution or suspension is plated. Counts from 10000 cfu/ml to 99999 cfu/ml are reported as >1E4 cfu/ml. Counts from 100000 cfu/ml to 999999 cfu/ml are reported as >1E5 cfu/ml. Counts above 1000000 cfu/ml are reported as >1E6 cfu/ml.
(§3) Non-sterile slurries (H60 or H90) contain contamination with environmental bacteria at a TVC>100000 cfu/ml. The contamination originates spontaneously and a bacterial burden of at least>100000 cfu/ml is confirmed prior use as inoculum by TVC. The following bacterial species are known to occur, as identified by 16S RNA sequencing or MALDI-TOF-MS analysis: Rhizobium radiobacter, Brevundimonas intermedia, Brevundimonas diminiuta, Sphingomonas sp., Pseudomonas stutzeri, Pseudomonas sp., Comomonas aquatic.
(§4) 50 g sterile slurry H60 with a solid content of 76.5 wt.-%, based on the total weight of the H60 slurry is supplemented with different amounts of 61 wt.-% urea solution or water. The samples are then inoculated with 1 ml non-sterile calcium carbonate slurry (H60), 1 ml non-sterile calcium carbonate slurry (H90), 0.02 ml overnight culture of Escherichia coli (DSMZ 46295) and 0.02 ml overnight culture of Pseudomonas putida. The control samples are not inoculated. Samples are incubated at 30° C. and the TVC and pH are determined at various time points (0 day, 1 day, 4, days, 8 days, 9 days and/or 13 days).

[2] = tested on: non-sterile calcium carbonate slurry (H90), environmental bacteria; test: Example 2 preservation efficacy: H60 slurry with 61 wt.-% urea solution, non-sterile H90 inoculum, TVC
Description: as §1, §2, §3, §4

[3] = tested on: non-sterile calcium carbonate slurry (H60), environmental bacteria; test: Example 4 preservation efficacy: H60 slurry with 61% (w/w) urea solution, non-sterile H60 inoculum, TVC
Description: as §1, §2, §3
50 g sterile calcium carbonate slurry (H60) with a solid content of 78.3 wt.-%, based on the total weight of the H60 slurry are supplemented with 61% (w/w) urea solution to different final concentrations. The samples are inoculated with 1 ml non-sterile calcium carbonate slurry (H60). Samples are incubated at 30° C. and TVC and pH are determined at various time points (0 day, 1 day, 4, days, 11 days).

[4] = Table 2, urea 2.75%, calcium carbonate 73.1%, water 24.15% w/w
[5] = Table 2, urea 7.6%, calcium carbonate 67.1%, water 25.3% w/w
[6] = Table 3, urea 0.65%, calcium carbonate 75.7%, water 23.65% w/w
[7] = Table 3, urea 2.75%, calcium carbonate 73.1%, water 24.15% w/w
[8] = urea 0.40%, calcium carbonate 75.61%, water 23.99% w/w
[9] = urea 1.10%, calcium carbonate 75.48%, water 23.42% w/w
[10] = urea 2.80%, calcium carbonate 75.21%, water 21.98% w/w

What does the source list for `NC(N)=O` [urea]?
TVC cfu/ml Day 4 [1, 4]: <100 cfu/ml; TVC cfu/ml Day 8 [1, 4]: <100 cfu/ml; TVC cfu/ml Day 13 [1, 4]: <100 cfu/ml; TVC cfu/ml Day 1 [1, 5]: <100 cfu/ml; TVC cfu/ml Day 4 [1, 5]: <100 cfu/ml; TVC cfu/ml Day 8 [1, 5]: <100 cfu/ml; TVC cfu/ml Day 13 [1, 5]: <100 cfu/ml; TVC cfu/ml Day 1 [1, 6]: >1E5 cfu/ml; TVC cfu/ml Day 4 [1, 6]: >1E5 cfu/ml; TVC cfu/ml Day 4 [1, 7]: 100 cfu/ml; TVC cfu/ml Day 9 [1, 7]: <100 cfu/ml; TVC cfu/ml Day 1 [2, 4]: <100 cfu/ml; TVC cfu/ml Day 4 [2, 4]: <100 cfu/ml; TVC cfu/ml Day 8 [2, 4]: <100 cfu/ml; TVC cfu/ml Day 13 [2, 4]: <100 cfu/ml; TVC cfu/ml Day 1 [2, 5]: <100 cfu/ml; TVC cfu/ml Day 4 [2, 5]: <100 cfu/ml; TVC cfu/ml Day 8 [2, 5]: <100 cfu/ml; TVC cfu/ml Day 13 [2, 5]: <100 cfu/ml; TVC cfu/ml Day 1 [2, 6]: >1E5 cfu/ml; TVC cfu/ml Day 4 [2, 6]: >1E5 cfu/ml; TVC cfu/ml Day 1 [2, 7]: <100 cfu/ml; TVC cfu/ml Day 4 [2, 7]: <100 cfu/ml; TVC cfu/ml Day 9 [2, 7]: <100 cfu/ml; TVC cfu/ml Day 4 [3, 8]: >1E5 cfu/ml; TVC cfu/ml Day 11 [3, 8]: >1E5 cfu/ml; TVC cfu/ml Day 1 ([3]; urea 0.40%, calcium carbonate 75.61%, water 23.99% w/w, detection limit 100 cfu/ml): >1E5 cfu/ml; TVC cfu/ml Day 1 [3, 9]: >1E5 cfu/ml; TVC cfu/ml Day 4 [3, 9]: >1E5 cfu/ml; TVC cfu/ml Day 11 [3, 9]: >1E5 cfu/ml; TVC cfu/ml Day 1 [3, 10]: >1E4 cfu/ml; TVC cfu/ml Day 4 [3, 10]: 600 cfu/ml; TVC cfu/ml Day 11 [3, 10]: <100 cfu/ml
